Assay [1] relates to Mus musculus. Kind of assay: Antagonism of apomorphine for 10-20 minutes in reserpinized mice when a dose of 4 micro mol/kg is administered intraperitoneally. The assay is classed as functional.
Assay [2] concerns Mus musculus. Kind of assay: Antagonism of apomorphine effects for 0-10 minutes in reserpinized mice following 0.4 umol/kg i.p. It counts as functional. Also on record: unit not given beside the values.
Assay [3] concerns Mus musculus. Kind of assay: Antagonism of apomorphine in reserpinized mice when a dose of 4 micro mol/kg is administered intraperitoneally. It counts as functional.
In assay [4] the test system is Mus musculus. The experiment in a line: Increase in locomotor activity in reserpinized mice following 0.4 umol/kg i.p. It counts as functional.
Assay [5] concerns the target T1, D(2) dopamine receptor (Rattus norvegicus, UniProt P61169). The experiment in a line: Inhibitory concentration against [3H]raclopride-labeled dopamine receptor D2 in rat striatum. It counts as tissue-based.
Assay [6] concerns Mus musculus. The experiment in a line: Antagonism of apomorphine for 0-10 minutes in reserpinized mice when a dose of 4 micro mol/kg is administered intraperitoneally. It counts as functional.
The subject of assay [7] is Mus musculus. Kind of assay: Antagonism of apomorphine effects for 10-20 minutes in reserpinized mice following 0.4 umol/kg i.p. The assay is classed as functional.
Assay [8] concerns Mus musculus. Kind of assay: Ability to stimulate dopaminergic systems by effect on locomotor activity in reserpinized mice when a dose of 4 micro mol/kg is administered intraperitoneally. It counts as functional.
The test system of assay [9] is Mus musculus. Kind of assay: Antagonism of apomorphine effects in reserpinized mice following 0.4 umol/kg i.p. It counts as functional.
Assay [10] concerns Mus musculus. The experiment in a line: Time of effect in the face-to-face behavioral assay in the mouse when a dose of 0.4 micro mol/kg is administered perorally. The assay is classed as functional.
Assay [11] has as its system Mus musculus. Kind of assay: Time of effect in the face-to-face behavioral assay in the mouse when a dose of 36 micro mol/kg is administered perorally. It counts as functional.
The target in assay [12] is T2, D(2) dopamine receptor (Homo sapiens, UniProt P14416). Kind of assay: Binding affinity against [3H]U-86,170-labeled dopamine receptor D2 in cloned CHO cells. The assay is classed as cell-based.
For assay [13], the system named is Mus musculus. The experiment in a line: Time of effect in the face-to-face behavioral assay in the mouse when a dose of 0.0 micro mol/kg is administered perorally. The assay is classed as functional.
In assay [14] the target is T2, D(2) dopamine receptor. The experiment in a line: Intrinsic activity from GTP shift using membranes from CHO cells transfected with mammalian dopamine receptor D2. The assay is classed as cell membranes.
The test system of assay [15] is Mus musculus. The experiment in a line: Time of effect in the face-to-face behavioral assay in the mouse when a dose of 3.6 micro mol/kg is administered perorally. The assay is classed as functional.
The test system of assay [16] is Mus musculus. The experiment in a line: Antagonism of apomorphine in reserpinized mice when a dose of 3.6 micro mol/kg is administered intraperitoneally. It counts as functional.
Assay [17] relates to Mus musculus. The experiment in a line: Time of effect in the isolation-induced aggression behavioral assay in the mouse when a dose of 11 micro mol/kg is administered perorally. It counts as functional.
For assay [18], the system named is Mus musculus. The experiment in a line: Time of effect in the isolation-induced aggression behavioral assay in the mouse when a dose of 0.0 micro mol/kg is administered perorally. It counts as functional.
Assay [19] has as its system Rattus norvegicus. Kind of assay: Inhibition of firing rates of dopaminergic neurons in the substantia nigra pars compacta by intravenous injection in rats. It counts as functional. As to conditions: Rattus norvegicus, Substantia nigra pars compacta, iv; read-out: ED50.
Assay [20] relates to Mus musculus. The experiment in a line: Antagonism of apomorphine for 10-20 minutes in reserpinized mice when a dose of 36 micro mol/kg is administered intraperitoneally. It counts as functional.
For assay [21], the system named is Mus musculus. The experiment in a line: Ability to stimulate dopaminergic systems by effect on locomotor activity in reserpinized mice when a dose of 3.6 micro mol/kg is administered intraperitoneally. The assay is classed as functional.
The subject of assay [22] is Mus musculus. Kind of assay: Antagonism of apomorphine for 0-10 minutes in reserpinized mice when a dose of 3.6 micro mol/kg is administered intraperitoneally. The assay is classed as functional.
For assay [23], the system named is Mus musculus. The experiment in a line: Antagonism of apomorphine for 0-10 minutes in reserpinized mice when a dose of 36 micro mol/kg is administered intraperitoneally. The assay is classed as functional.
Assay [24] relates to Mus musculus. Kind of assay: Time of effect in the isolation-induced aggression behavioral assay in the mouse when a dose of 36 micro mol/kg is administered perorally. It counts as functional.
In assay [25] the test system is Mus musculus. The experiment in a line: Ability to stimulate dopaminergic systems by effect on locomotor activity in reserpinized mice when a dose of 36 micro mol/kg is administered intraperitoneally. It counts as functional.
For assay [26], the system named is Felis catus. Kind of assay: Maximum decrease of arterial blood pressure at sympathetic nerve activity (SND) in anesthetized cat has been observed following 1 mg/kg dose. It counts as functional. Also on record: scale not given: the % may be the effect or the level left.
Assay [27] relates to Rattus norvegicus. Kind of assay: Inhibition of firing rates of serotonergic neurons in the dorsal raphe nucleus by intravenous injection in rats. It counts as functional.
In assay [28] the test system is Mus musculus. Kind of assay: Time of effect in the isolation-induced aggression behavioral assay in the mouse when a dose of 3.6 micro mol/kg is administered perorally. The assay is classed as functional.
In assay [29] the test system is Mus musculus. The experiment in a line: Antagonism of apomorphine in reserpinized mice when a dose of 36 micro mol/kg is administered intraperitoneally. It counts as functional.
Assay [30] concerns Felis catus. The experiment in a line: Maximum decrease of sympathetic nerve activity (SND) in anesthetized cat. The assay is classed as functional. Set-up: scale not given: the % may be the effect or the level left.
In assay [31] the test system is Mus musculus. Kind of assay: Antagonism of apomorphine for 10-20 minutes in reserpinized mice when a dose of 3.6 micro mol/kg is administered intraperitoneally. It counts as functional.
Assay [32] has as its target T1, D(2) dopamine receptor. The experiment in a line: Compound was evaluated for the binding affinity against [3H]U-86,170-labeled dopamine receptor D2 in cloned CHO cells. It counts as cell-based.
Assay [33] concerns Mus musculus. Kind of assay: Antagonism of apomorphine for 0-10 minutes in reserpinized mice when a dose of 0.4 micro mol/kg is administered intraperitoneally (*,p<0.05). The assay is classed as functional.
Assay [34] deals with Rattus norvegicus. Kind of assay: Inhibition of firing rates of serotonergic neurons in the dorsal raphe nucleus by intravenous injection in rats. It counts as functional.
Assay [35] concerns Mus musculus. Kind of assay: Effective dose on hypothermia in mouse when administered through peroral route. To be noted: po. It counts as functional.
For assay [36], the system named is Mus musculus. Kind of assay: Maximum decrease in temperature when compound is administered through peroral route. It counts as functional.
For assay [37], the system named is Rattus norvegicus. The experiment in a line: Effect on the synthesis rates of dopamine (DOPA accumulation) in the rat ventral limbic brain region at 3.6 micro mol/kg. The assay is classed as functional, Limbic system.
Assay [38] concerns Mus musculus. Kind of assay: Maximum decrease in temperature when compound is administered subcutaneously. The assay is classed as functional.
Assay [39] concerns Mus musculus. The experiment in a line: Effective dose on hypothermia in mouse when administered subcutaneously. The assay is classed as functional. As to conditions: sc.
For assay [40], the species on record is Rattus norvegicus. Kind of assay: Effect on the synthesis rates of serotonin (5-HTP accumulation) in the rat ventral limbic brain region at 3.6uMkg. The assay is classed as functional, Limbic system.
For assay [41], the species on record is Rattus norvegicus. Kind of assay: Effect on the synthesis rates of serotonin (5-HTP accumulation) in the rat ventral limbic brain region at 3.6uMkg. It counts as functional, Limbic system.

“And” between values parts separate entries of the source, which are not always exact repeats. Equal values may be shown once.

T2 sequence (P14416 whole entry): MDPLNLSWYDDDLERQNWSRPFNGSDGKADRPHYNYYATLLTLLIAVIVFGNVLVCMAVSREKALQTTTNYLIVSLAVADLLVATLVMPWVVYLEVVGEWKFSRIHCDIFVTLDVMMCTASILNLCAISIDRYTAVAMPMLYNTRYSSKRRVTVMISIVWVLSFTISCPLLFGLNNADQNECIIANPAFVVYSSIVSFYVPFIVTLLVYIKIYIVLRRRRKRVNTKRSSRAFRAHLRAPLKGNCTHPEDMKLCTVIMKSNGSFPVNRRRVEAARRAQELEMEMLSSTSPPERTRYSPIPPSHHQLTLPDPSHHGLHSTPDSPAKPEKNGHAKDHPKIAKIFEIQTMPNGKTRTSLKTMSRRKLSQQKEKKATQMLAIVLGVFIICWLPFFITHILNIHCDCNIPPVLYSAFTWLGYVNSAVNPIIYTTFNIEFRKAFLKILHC
T1 sequence (P61169 whole entry): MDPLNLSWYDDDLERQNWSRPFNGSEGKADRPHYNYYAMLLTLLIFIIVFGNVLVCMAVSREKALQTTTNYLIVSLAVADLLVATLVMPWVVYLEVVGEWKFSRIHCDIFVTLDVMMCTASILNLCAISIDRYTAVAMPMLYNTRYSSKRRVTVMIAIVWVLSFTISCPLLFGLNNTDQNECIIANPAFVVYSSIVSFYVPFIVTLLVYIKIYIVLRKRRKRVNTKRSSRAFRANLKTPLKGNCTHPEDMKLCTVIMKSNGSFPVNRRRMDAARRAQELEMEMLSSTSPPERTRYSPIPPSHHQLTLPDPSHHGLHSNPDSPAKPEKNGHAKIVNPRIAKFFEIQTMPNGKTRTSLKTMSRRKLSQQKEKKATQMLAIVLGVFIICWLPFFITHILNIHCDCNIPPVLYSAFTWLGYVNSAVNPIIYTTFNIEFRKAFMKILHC

What is called IC50 is the point on the concentration scale where inhibition reaches its midpoint. In the case of `CCCN1CC[C@@H]2c3ccccc3CC[C@H]21` (racemic), the Locomotor activity in the assay on Mus musculus [1] stood at 46; in the assay on Mus musculus [2], 41; in the assay with Mus musculus [3], 48; with Mus musculus [4], 22; in the assay with Mus musculus [6], 22; in the assay on Mus musculus [7] it was 61. Also, the Locomotor activity was found to be 15 in the assay with Mus musculus [8] and 55 with Mus musculus [9]. At D(2) dopamine receptor [5], this compound returned a half-maximal inhibitory concentration (IC50) greater than 1000 nM.

The Ki is a dissociation constant, usually derived from enzyme kinetics or from competition with a known ligand. In general, ED50 refers to the midpoint of the dose-response relation. For `C=CCN1CCC2c3c(cccc3OC)CC[C@H]21` (single isomer, unassigned; (-)), the Time with Mus musculus [10] was 0.9 s; in the assay on Mus musculus [11], 1.4 s; in the assay on Mus musculus [13], 1.2 s; with Mus musculus [15], 1.3 s; in the assay with Mus musculus [17], 40 s; with Mus musculus [18] it was 18 s and 27 s. In addition, the Time is 236 s in the assay on Mus musculus [24] and 85 s in the assay on Mus musculus [28]. The Ki at D(2) dopamine receptor [12] was determined as 6.7 nM. Besides, the Locomotor activity in the assay on Mus musculus [2] amounted to 29; in the assay with Mus musculus [16], 14; in the assay with Mus musculus [20], 18; in the assay on Mus musculus [4] it was 7; with Mus musculus [21], 79; with Mus musculus [7], 45. The Locomotor activity in the assay with Mus musculus [22] was 52; in the assay with Mus musculus [23], 24; in the assay on Mus musculus [25], 52; with Mus musculus [9], 50; in the assay on Mus musculus [29], 11; with Mus musculus [31] it was 49. The Intrinsic activity on D(2) dopamine receptor [14] is 24%. In addition, the results for the ED50 in the assay on Rattus norvegicus [19] and with Rattus norvegicus [27] were 0.04 µmol/kg and 0.007 µmol/kg, respectively. Besides, the Control with Felis catus [26] is reported as 55%; with Felis catus [30], 385%.

Regarding `CCCN1CC[C@H]2c3ccccc3CC[C@H]21` (racemic), the inhibition constant (Ki) at D(2) dopamine receptor [32] is 548 nM. Also, the Locomotor activity with Mus musculus [33] is on record as 56; in the assay on Mus musculus [4] it was 15; in the assay with Mus musculus [7], 76; with Mus musculus [9] it was 128.

For `C=CCN1CC[C@H]2c3c(cccc3OC)CC[C@H]21` (racemic), the ED50 stood at 0.04 µmol/kg in the assay on Rattus norvegicus [34], 101 µmol/kg in the assay on Mus musculus [35] and 8.2 µmol/kg in the assay on Mus musculus [39]. Besides, the Locomotor activity with Mus musculus [2] is given as 96; in the assay with Mus musculus [16] it was 6; in the assay with Mus musculus [20], 45; with Mus musculus [4], 6; in the assay on Mus musculus [21] it was 37; with Mus musculus [7], 94. Also, the Locomotor activity in the assay on Mus musculus [22] came to 121; in the assay with Mus musculus [23] it was 54; with Mus musculus [25], 70; in the assay on Mus musculus [9], 55; with Mus musculus [29], 4; in the assay with Mus musculus [31], 94. The Max temperature decrease with Mus musculus [36] is on record as 3.6; in the assay with Mus musculus [38] it was 4.2. The Control in the assay on Rattus norvegicus [37] is given as 48%; in the assay with Felis catus [26] it was 59%; in the assay with Felis catus [30], 189%; in the assay filed under Rattus norvegicus [40], -52%.

Regarding `C=CCN1CC[C@@H]2c3c(cccc3OC)CC[C@H]21` (racemic), the Control in the assay filed under Rattus norvegicus [41] is on record as 158%; in the assay listed under Rattus norvegicus [40] it was -28%. Affinity on D(2) dopamine receptor [12] was put at a Ki of 8.5 nM. Also, the Locomotor activity in the assay on Mus musculus [2] came out at 65; in the assay on Mus musculus [16] it was 30; in the assay with Mus musculus [20] it was 32; with Mus musculus [4] it was 36; in the assay with Mus musculus [21], 11; with Mus musculus [7], 65. The Locomotor activity stood at 65 with Mus musculus [22]; 40 in the assay with Mus musculus [23]; 48 in the assay on Mus musculus [25]; 140 in the assay with Mus musculus [9]; 5 in the assay on Mus musculus [29]; 57 in the assay with Mus musculus [31]. The Intrinsic activity on D(2) dopamine receptor [14] worked out at 0%. The compound also registered a Max temperature decrease in the assay on Mus musculus [38] of 4.5. The compound further showed a 50% effective dose (ED50) in the assay on Mus musculus [39] of 40 µmol/kg.
